Experimental data from article PMC2719696, “Kinetics and Cellular Site of Glycolipid Loading Control the Outcome of Natural Killer T Cell Activation” (Immunity, 2009).

What follows are compounds tested against T1, mCD1d (Mus musculus, UniProt P11609) (assay: mAb L363 surface staining of JAWS II cells by flow cytometry (kinetics and pulse-chase)). Details: JAWS II cells pulsed 500 nM for 1.5 hr, 8 hr chase.
T1 construct: host or cells: JAWS II (C57BL/6.Trp53-/- derived dendritic cell line)
T1 sequence (P11609 22-336): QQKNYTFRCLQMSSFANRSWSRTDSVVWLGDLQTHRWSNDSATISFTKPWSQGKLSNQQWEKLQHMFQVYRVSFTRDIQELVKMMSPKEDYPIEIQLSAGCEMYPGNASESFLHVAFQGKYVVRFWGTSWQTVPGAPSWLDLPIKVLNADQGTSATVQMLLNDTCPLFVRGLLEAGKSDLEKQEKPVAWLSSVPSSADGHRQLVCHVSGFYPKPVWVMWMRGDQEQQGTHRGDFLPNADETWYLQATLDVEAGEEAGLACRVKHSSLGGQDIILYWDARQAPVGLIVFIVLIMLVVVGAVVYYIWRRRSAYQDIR
T1 sequence (P01887 21-119 partner): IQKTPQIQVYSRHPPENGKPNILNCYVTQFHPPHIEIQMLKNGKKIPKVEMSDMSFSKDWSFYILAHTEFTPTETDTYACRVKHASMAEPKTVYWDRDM
Format: cell-based
Protocol: We studied this possibility directly by using a monoclonal antibody (L363) that specifically recognizes complexes of αGalCer bound to mCD1d ([Yu et al., 2007]). Mouse splenocytes were cultured with either αGalCer-C26:0 or representative Th2 cell-type cytokine-biasing analogs, and L363 staining was assessed on various cell types (Figure 3A). […] This was investigated further with more detailed kinetic studies in which immortalized mouse DC line JAWS II was cultured with each glycolipid and assessed for L363 surface staining at 0.5, 4, and 18 hr (Figure 3B). There was a striking correlation between rapid kinetics of glycolipid association with mCD1d and the ability to induce a Th2 cell-type cytokine response. […] In contrast, most analogs inducing Th2 cell-type cytokine responses gave strong L363 staining by 0.5 hr, which increased modestly or not at all with longer incubation. […] Experiments using responses of iNKT cells to analyze the kinetics of cell-surface appearance gave analogous results (Figure S5).
Figure 3 Direct Analysis of Presentation of αGalCer Analogs with Complex-Specific mAb Staining (A) Mouse splenocytes cultured with either vehicle only (0.02% DMSO) or with the indicated αGalCer analogs (100 nM) were harvested after 1 hr or 19 hr of incubation and stained with mAb L363 or anti-CD1d mAb 1B1 and with mAbs specific for CD11c, CD19, and F4/80 (Figure S4). Filled histograms show L363 staining of cells cultured with vehicle only, and open histograms show cells cultured with indicated glycolipids. At the left, the total CD1d staining with mAb 1B1 (open histograms) compared to isotype control mAb (filled histograms) are shown on cells cultured for 19 hr with DMSO only. (B) JAWS II cells were incubated with glycolipids (250 nM) for various times ranging from 0.5–18 hr as indicated, stained with mAb L363, and analyzed by flow cytometry. Dashed line histograms show L363 staining of cells incubated with medium only, and bold histograms show L363 staining of cells incubated with αGalCer analogs. (C) JAWS II cells were pulsed with indicated αGalCer analogs (500 nM) for 1.5 hr, washed extensively, and recultured at 37°C for various chase times. Upon harvesting, cells were placed on ice and subsequently stained with mAb L363 for flow cytometry analysis. Histogram overlays show L363 staining of cells pulsed initially with vehicle only (DMSO, dashed histograms) or with αGalCer analog (bold histograms). […] All results shown (A, B, and C) were representative of at least two independent experiments.
Recombinant CD1d proteins were produced and assembled into tetramers for staining as previously described ([Forestier et al., 2007]). To obtain optimally loaded tetramers for iNKT cell staining, we loaded mCD1d with αGalCer-C26:0 and -C24:0 in the presence of 0.05% Triton X-100 (Sigma-Aldrich) and loaded mCD1d with other glycolipids without Triton X-100. For loading of hCD1d, 0.05% Triton X-100 was included with αGalCer-C26:0, -C24:0, and -C20:4, whereas other glycolipids were loaded without Triton X-100. For surface staining of αGalCer/mCD1d complexes, murine splenocytes or JAWS II cells were incubated with 250 nM glycolipids for various times and then 0.2 μg/ml mAb L363 (Alexa Fluor 647 or biotin conjugated) was added directly to the culture for an additional 30 min at RT. In some experiments, additional fluorochrome-conjugated antibodies specific for leukocyte subpopulations were added for the last 15 min of incubation. All samples were analyzed with the FACSCalibur flow cytometer (BD Biosciences).
In the case of `CCCCCCCCCCCCCCCCCCCCCCCCCC(=O)NC(COC1OC(CO)C(O)C(O)C1O)C(O)C(O)CCCCCCCCCCCCCC` (stereo not drawn) [αGalCer-C26:0, reference compound], the “formation of mCD1d-αGalCer surface complexes in pulse-chase analysis” value (shortened to “formation”) is reported as “formed slowly”. For `CCCCCCCCCCCCCCC(O)C(O)C(COC1OC(CO)C(O)C(O)C1O)NC(=O)CCCCCCCCC` (stereo not drawn) [αGalCer-C10:0], the “formation” value was “the complexes formed rapidly and began declining immediately during the chase period”. `CCCCCC=CCC=CCCCCCCCCCC(=O)NC(COC1OC(CO)C(O)C(O)C1O)C(O)C(O)CCCCCCCCCCCCCC` (stereo not drawn) [αGalCer-C20:2] was tested, and the “formation” value was “the complexes formed rapidly and began declining immediately during the chase period”.

Same assay, conditions: JAWS II cells, 250 nM glycolipid, 0.5, 4 and 18 hr
For `CCCCCCCCCCCCCCCCCCCCCCCCCC(=O)NC(COC1OC(CO)C(O)C(O)C1O)C(O)C(O)CCCCCCCCCCCCCC` (stereo not drawn) [αGalCer-C26:0, reference compound], the “L363 surface staining over time” value was “strong L363 staining was detected only at 18 hr”. In the case of `CCCCCCCCCCCCCCCCCCCCCCCC(=O)NC(COC1OC(CO)C(O)C(O)C1O)C(O)C(O)CCCCC` (stereo not drawn) [OCH], the “L363 surface staining over time” value is reported as “very weak L363 reactivity”. For `CCCCCCCCCCCCCCCCCCCCCCCC(=O)NC(COC1OC(CO)C(O)C(O)C1O)C(O)C(O)CCCCCCCCCCCCCC` (stereo not drawn) [αGalCer-C24:0], the “L363 surface staining over time” value was “strong L363 staining was detected only at 18 hr”.
